Test results reported in patent US20220098197A1, “SALTS OF HETEROCYCLIC COMPOUND AND USE THEREOF” (priority 2019, published 2022).

Assays:
[1] = tested on: RAW 264.7 macrophages; experiment: Cell viability (MTT) assay with CSE/PGD2; assay type: cell-based, mouse; conditions: 24 hrs
Method: The cell lines of RAW 264.7 macrophages and mouse leukemic mononuclear macrophages were purchased from American Type Culture Collection (ATCC, Manassas, Va., USA). RAW 264.7 macrophage was cultured in RPMI-1640 medium containing penicillin (100 U/ml), streptomycin (100 μg/ml) and 10% FBS. The cytotoxicity of CT-NA (0-100 μM) alone, and in a combination of PGD2 (0-100 μM) and CSE (1-10%) on RAW264.7 macrophage was assessed using methylthiazole-tetrazole (MTT) assay according to the manufacturer's protocol. Briefly, RAW 264.7 macrophages were seeded in a 96-well plate at a concentration of 4×10^5 cells/ml for 24 hrs, and then exposed to CT-NA (0-100 μM) at 37° C. for 1 hour. Next, RAW 264.7 macrophages were further exposed to CSE (4%) and PGD2 (10 μM) for 24 hrs, and then treated with MTT (5 mg/ml) at 37° C. for 4 hrs. Then, the supernatant of each well was replaced with DMSO (200 μl/well), and the absorbance at 570 nm was measured.

[2] = tested on: CS-induced ALI mice; experiment: CS-induced lung injury model: albumin assay in BALF; assay type: in vivo, Balb/c mice; conditions: CT-NA 10 and 30 mg/kg intragastric; CS exposure; p<0.01
Method: (§1) Model preparation: The mice were randomly divided into 5 groups (12 mice in each group), which were the control group (the mice were exposed to fresh air), the saline group (the mice were exposed to cigarette smoke), dexamethasone (Dex) group (1 mg/kg) (the mice were exposed to cigarette smoke), CT-NA 10 mg/kg group and CT-NA 30 mg/kg group (the mice were exposed to cigarette smoke). According to the grouping, the mice were intragastrically administered saline, Dex and CT-NA, respectively. Thereafter, the mice were exposed to fresh air or cigarette smoke generated from 3R4F research-grade cigarettes (containing about 600 mg TPM/m^3 and 29.9 mg nicotine/m^3) in a cuboid plastic box (65×50x×45 cm). Ten cigarettes were burned every day for seven days. After one cigarette was burned, the next cigarette was ignited. The daily body weight and general condition of the mice were checked. 24 hrs after the last exposure to the cigarette smoke, the partial pressure of oxygen (PO2) of all mice was measured by the Moor VMS-OXY™ measuring instrument, which was used to measure the oxygenated/deoxygenated hemoglobin concentration and oxygen saturation (percentage) in the microcirculation at the wavelength range of 500 to 650 nm. […] The albumin concentration ratio assessed from BALF represented not only the albumin level but also the permeability of the pulmonary microvascular.

[3] = tested on: isolated peritoneal macrophages; experiment: Cell viability (MTT) assay with LPS/PGD2, peritoneal macrophages; assay type: cell-based, mice
[4] = tested on: neutrophils; experiment: PGD2-induced neutrophils migration in vitro, Boyden chamber (Example 2); assay type: cell-based, mice; conditions: pretreatment CT-NA 1 μM or 10 μM, OC459 10 μM; 4 hrs; P<0.01
Method: The method for isolating neutrophils and testing effect of CT-NA on neutrophils migration was briefly described as follows. 1.5% glycogen was injected intragastrically into mice at a dose of 20 ml/kg body weight. 4 hrs later, the mice were euthanized to isolate neutrophils from the peritoneal lavage. Effect of CT-NA on the migration of neutrophils was detected using the Boyden chamber assay kit (3 um pore size, Billerica, Mass.). PGD2 was used as a chemoattractant because the activated PGD2/CRTH2 receptors promoted the neutrophils migration. Firstly, the isolated neutrophils were inoculated at 4×10^5 cells/ml into the upper side of well of the Boyden chamber, and the lower chamber contained different concentrations of PGD2 (0.1, 1 and 10 μM), and the neutrophils were allowed to migrate towards PGD2 for 4 hrs at 37° C. in order to find out the suitable PGD2 concentration. After evaluation of the suitable PGD2 concentration, the migration of neutrophils pretreated with CT-NA (1 and 10 μM) and OC459 (10 μM), another effective CRTH2 inhibitor, toward PGD2 (1 μM) was assessed for 4 hrs.

[5] = tested on: CS-induced ALI mice; experiment: CS-induced lung injury model: lung weight ratio (coefficient); assay type: in vivo, Balb/c mice; conditions: CT-NA 10 and 30 mg/kg intragastric; CS exposure; p<0.05
Method: as §1, with “The daily body weight and general condition of the mice were checked.” left out, “As an index of pulmonary edema, the lung weight” for “The albumin concentration”, “was measured by dividing the individual lung weight of each mouse after aspirating the blood tissue” for “assessed”, “from” for “from BALF represented not only”, “lung surface, by” for “albumin level but also”, “total body weight.” for “permeability of the pulmonary microvascular.”

[6] = PGD2 (10 μM) plus CT-NA up to 100 μM

## CN([C@@H]1CCc2c(CC(=O)[O-])c3cccnc3n2C1)S(=O)(=O)c1ccc(F)cc1.[Na+] [Sodium salt hydrate]
[1]; CSE 4% plus CT-NA up to 100 μM
  cytotoxicity (MTT), CSE plus CT-NA: non-toxic
[1]; [6]
  cytotoxicity (MTT), PGD2 plus CT-NA: non-toxic
[2]
  BALF albumin contents: remarkably reduced
[3]; LPS (100 ng/ml) plus CT-NA up to 100 μM
  cytotoxicity (MTT), LPS plus CT-NA: non-toxic
[3]; [6]
  cytotoxicity (MTT), PGD2 plus CT-NA: non-toxic
[4]
  neutrophils migration induced by 1 μM PGD2: significantly reduced
[5]
  lung weight coefficient: partially reduced
